In data set [1] the test system is Oryctolagus cuniculus. Nature of the data set: Hyperthermic activity in New Zealand rabbit at 0.25 to 21.2 umol/kg administered in marginal ear vein as solution of amine hydrochloride in nonpyrogenic saline by time-temperature curve integration method relative to l-(2,5-dimethoxy-4-methylphenyl)-2-aminopropane. Format: functional.
In data set [2] the test system is Oryctolagus cuniculus. Put plainly: Hyperthermic activity in New Zealand rabbit assessed as dose required for 1 degC rise in rectal temperature administered in marginal ear vein as solution of amine hydrochloride in nonpyrogenic saline. Format: functional, Rectum.
For data set [3], the system named is Brain. Nature of the data set: Drug uptake in Sprague-Dawley rat brain assessed as R to S enantiomeric ratio at 30 mg/kg, ip after 15 mins by electron-capture gas chromatographic analysis. Format: ADME, organism-based. Also noted: dose 30 mg/kg, route intraperitoneal. The settings on record: in vivo, 0.25 h.
The test system of data set [4] is Brain. Put plainly: Drug uptake in Sprague-Dawley rat brain assessed as R to S enantiomeric ratio at 30 mg/kg, ip after 30 mins by electron-capture gas chromatographic analysis. Format: ADME, organism-based. Further details: dose 30 mg/kg, route intraperitoneal. To be noted: in vivo, 0.5 h.
Data set [5] has as its system Oryctolagus cuniculus. Nature of the data set: Hyperthermic activity in New Zealand rabbit assessed as mean maximum rise in rectal temperature at 7.1 umol/kg administered in marginal ear vein as solution of amine hydrochloride in nonpyrogenic saline. Format: functional, Rectum.
Data set [6] concerns Brain. Put plainly: Drug uptake in Sprague-Dawley rat brain assessed as R to S enantiomeric ratio at 30 mg/kg, ip after 60 mins by electron-capture gas chromatographic analysis. To be noted: in vivo, 1 h. Format: ADME, organism-based. Also noted: dose 30 mg/kg, route intraperitoneal.
The subject of data set [7] is Oryctolagus cuniculus. Nature of the data set: Hyperthermic activity in New Zealand rabbit assessed as increase in rectal temperature measured as time to reach peak effect at 14.2 umol/kg administered in marginal ear vein as solution of amine hydrochloride in nonpyrogenic saline. Format: functional, Rectum.
Data set [8] deals with Oryctolagus cuniculus. Put plainly: Hyperthermic activity in New Zealand rabbit assessed as mean maximum rise in rectal temperature at 0.25 to 21.2 umol/kg administered in marginal ear vein as solution of amine hydrochloride in nonpyrogenic saline relative to l-(2,5-dimethoxy-4-methylphenyl)-2-aminopropane. Type of data set: functional, Rectum.
The subject of data set [9] is Oryctolagus cuniculus. Put plainly: Hyperthermic activity in New Zealand rabbit assessed as increase in rectal temperature measured as time to reach peak effect at 7.1 umol/kg administered in marginal ear vein as solution of amine hydrochloride in nonpyrogenic saline. Type of data set: functional, Rectum.
In data set [10] the test system is Oryctolagus cuniculus. Put plainly: Hyperthermic activity in New Zealand rabbit assessed as mean maximum rise in rectal temperature at 14.2 umol/kg administered in marginal ear vein as solution of amine hydrochloride in nonpyrogenic saline. Format: functional, Rectum.
Data set [11] has as its system Oryctolagus cuniculus. Put plainly: Hyperthermic activity in New Zealand rabbit assessed as increase in rectal temperature measured as time to reach peak effect at 5.3 umol/kg administered in marginal ear vein as solution of amine hydrochloride in nonpyrogenic saline. Type of data set: functional, Rectum.
Data set [12] deals with Oryctolagus cuniculus. Nature of the data set: Hyperthermic activity in New Zealand rabbit assessed as mean maximum rise in rectal temperature at 21.3 umol/kg administered in marginal ear vein as solution of amine hydrochloride in nonpyrogenic saline. Format: functional, Rectum.
For data set [13], the system named is Oryctolagus cuniculus. Put plainly: Hyperthermic activity in New Zealand rabbit assessed as mean maximum rise in rectal temperature at 5.3 umol/kg administered in marginal ear vein as solution of amine hydrochloride in nonpyrogenic saline. Type of data set: functional, Rectum.
The subject of data set [14] is Oryctolagus cuniculus. Nature of the data set: Hyperthermic activity in New Zealand rabbit assessed as mean maximum rise in rectal temperature at 10.6 umol/kg administered in marginal ear vein as solution of amine hydrochloride in nonpyrogenic saline. Format: functional, Rectum.
Data set [15] deals with Oryctolagus cuniculus. Put plainly: Hyperthermic activity in New Zealand rabbit assessed as increase in rectal temperature measured as time to reach peak effect at 21.3 umol/kg administered in marginal ear vein as solution of amine hydrochloride in nonpyrogenic saline. Type of data set: functional, Rectum.
The subject of data set [16] is Oryctolagus cuniculus. Nature of the data set: Hyperthermic activity in New Zealand rabbit assessed as increase in rectal temperature measured as time to reach peak effect at 10.6 umol/kg administered in marginal ear vein as solution of amine hydrochloride in nonpyrogenic saline. Type of data set: functional, Rectum.
Data set [17] concerns Oryctolagus cuniculus. Put plainly: Hyperthermic activity in New Zealand rabbit assessed as increase in rectal temperature measured as time to reach peak effect at 0.22 umol/kg administered in marginal ear vein as solution of amine hydrochloride in nonpyrogenic saline. Type of data set: functional, Rectum.
In data set [18] the test system is Oryctolagus cuniculus. Put plainly: Hyperthermic activity in New Zealand rabbit assessed as increase in rectal temperature measured as time to reach peak effect at 2 umol/kg administered in marginal ear vein as solution of amine hydrochloride in nonpyrogenic saline. Format: functional, Rectum.
Data set [19] has as its system Brain. Nature of the data set: Drug uptake in Sprague-Dawley rat brain assessed as R to S enantiomeric ratio at 30 mg/kg, ip after 120 mins by electron-capture gas chromatographic analysis. Format: ADME, organism-based. The settings on record: in vivo, 2 h. Further details: dose 30 mg/kg, route intraperitoneal.
For data set [20], the system named is Oryctolagus cuniculus. Put plainly: Hyperthermic activity in New Zealand rabbit assessed as increase in rectal temperature measured as time to reach peak effect at 0.67 umol/kg administered in marginal ear vein as solution of amine hydrochloride in nonpyrogenic saline. Format: functional, Rectum.
The test system of data set [21] is Oryctolagus cuniculus. Nature of the data set: Hyperthermic activity in New Zealand rabbit assessed as mean maximum rise in rectal temperature at 0.67 umol/kg administered in marginal ear vein as solution of amine hydrochloride in nonpyrogenic saline. Format: functional, Rectum.
The subject of data set [22] is Oryctolagus cuniculus. Nature of the data set: Hyperthermic activity in New Zealand rabbit assessed as mean maximum rise in rectal temperature at 0.22 umol/kg administered in marginal ear vein as solution of amine hydrochloride in nonpyrogenic saline. Type of data set: functional, Rectum.
Data set [23] deals with Oryctolagus cuniculus. Nature of the data set: Hyperthermic activity in New Zealand rabbit assessed as mean maximum rise in rectal temperature at 2 umol/kg administered in marginal ear vein as solution of amine hydrochloride in nonpyrogenic saline. Format: functional, Rectum.
In data set [24] the test system is Oryctolagus cuniculus. Nature of the data set: Hyperthermic activity in New Zealand rabbit assessed as mean maximum rise in rectal temperature at 0.50 umol/kg administered in marginal ear vein as solution of amine hydrochloride in nonpyrogenic saline. Type of data set: functional, Rectum.
Data set [25] relates to Oryctolagus cuniculus. Nature of the data set: Hyperthermic activity in New Zealand rabbit assessed as increase in rectal temperature measured as time to reach peak effect at 0.50 umol/kg administered in marginal ear vein as solution of amine hydrochloride in nonpyrogenic saline. Type of data set: functional, Rectum.
The test system of data set [26] is Oryctolagus cuniculus. Put plainly: Hyperthermic activity in New Zealand rabbit assessed as increase in rectal temperature measured as time to reach peak effect at 1 umol/kg administered in marginal ear vein as solution of amine hydrochloride in nonpyrogenic saline. Type of data set: functional, Rectum.
The test system of data set [27] is Oryctolagus cuniculus. Nature of the data set: Hyperthermic activity in New Zealand rabbit assessed as increase in rectal temperature measured as time to reach peak effect at 0.25 umol/kg administered in marginal ear vein as solution of amine hydrochloride in nonpyrogenic saline. Type of data set: functional, Rectum.
Data set [28] deals with Brain. Nature of the data set: Drug uptake in Sprague-Dawley rat brain assessed as R to S enantiomeric ratio at 15 mg/kg, ip after 5 mins by electron-capture gas chromatographic analysis. Format: ADME, organism-based. Further details: dose 15 mg/kg, route intraperitoneal. The settings on record: in vivo.
The test system of data set [29] is Brain. Put plainly: Drug uptake in Sprague-Dawley rat brain assessed as R to S enantiomeric ratio at 15 mg/kg, ip after 60 mins by electron-capture gas chromatographic analysis. Type of data set: ADME, organism-based. Further details: dose 15 mg/kg, route intraperitoneal. To be noted: in vivo, 1 h.
Data set [30] has as its system Oryctolagus cuniculus. Nature of the data set: Hyperthermic activity in New Zealand rabbit assessed as mean maximum rise in rectal temperature at 1 umol/kg administered in marginal ear vein as solution of amine hydrochloride in nonpyrogenic saline. Format: functional, Rectum.
The subject of data set [31] is Oryctolagus cuniculus. Put plainly: Hyperthermic activity in New Zealand rabbit assessed as mean maximum rise in rectal temperature at 0.25 umol/kg administered in marginal ear vein as solution of amine hydrochloride in nonpyrogenic saline. Format: functional, Rectum.
The test system of data set [32] is Brain. Nature of the data set: Drug uptake in Sprague-Dawley rat brain assessed as R to S enantiomeric ratio at 15 mg/kg, ip after 15 mins by electron-capture gas chromatographic analysis. Type of data set: ADME, organism-based. Further details: dose 15 mg/kg, route intraperitoneal. The settings on record: in vivo, 0.25 h.
The test system of data set [33] is Brain. Nature of the data set: Drug uptake in Sprague-Dawley rat brain assessed as R to S enantiomeric ratio at 15 mg/kg, ip after 120 mins by electron-capture gas chromatographic analysis. Format: ADME, organism-based. Also noted: dose 15 mg/kg, route intraperitoneal. To be noted: in vivo, 2 h.
Data set [34] deals with Brain. Put plainly: Drug uptake in Sprague-Dawley rat brain assessed as R to S enantiomeric ratio at 15 mg/kg, ip after 30 mins by electron-capture gas chromatographic analysis. Type of data set: ADME, organism-based. The settings on record: in vivo, 0.5 h. Also noted: dose 15 mg/kg, route intraperitoneal.

The structures appear in SMILES notation.

As to `COc1cc(CC(C)N)c(SC)cc1OC.Cl` (racemic), the “fold change (FC)” value in the data set with Oryctolagus cuniculus [1] came out at 0.022; in the data set on Oryctolagus cuniculus [8] it was 0.017. Moreover, in the data set on Oryctolagus cuniculus [2], the Activity is 14 µmol/kg. Further, the Ratio is 1.14 with Brain [3], 1.09 in the data set with Brain [4] and 1.43 in the data set with Brain [6]. Also, the T in the data set with Oryctolagus cuniculus [5] was found to be 0.82 °C; with Oryctolagus cuniculus [10] it was 1.01 °C. For the same molecule, the Time in the data set with Oryctolagus cuniculus [7] is 75 min; with Oryctolagus cuniculus [9], 105 min.

With `COc1cc(OC)c(SC)cc1CC(C)N.Cl` (racemic), the Time in the data set on Oryctolagus cuniculus [11] is on record as 120 min; in the data set with Oryctolagus cuniculus [15] it was 180 min; in the data set with Oryctolagus cuniculus [16], 135 min. The T came to 1.62 °C in the data set with Oryctolagus cuniculus [12], 0.6 °C in the data set with Oryctolagus cuniculus [13] and 1.09 °C in the data set with Oryctolagus cuniculus [14]. The “fold change (FC)” value was determined as 0.039 in the data set on Oryctolagus cuniculus [1] and 0.028 with Oryctolagus cuniculus [8]. The Activity in the data set with Oryctolagus cuniculus [2] worked out at 9.77 µmol/kg. The Ratio in the data set on Brain [3] is 1.1; in the data set with Brain [4], 1.11; with Brain [6], 1.35.

As to `COc1cc(SC)c(OC)cc1CC(C)N.Cl` (racemic), the Time was found to be 120 min with Oryctolagus cuniculus [17], 195 min in the data set with Oryctolagus cuniculus [18] and 165 min in the data set with Oryctolagus cuniculus [20]. For the same molecule, the “fold change (FC)” value in the data set with Oryctolagus cuniculus [1] was 0.64; with Oryctolagus cuniculus [8] it was 0.54. Further, in the data set with Oryctolagus cuniculus [2], the Activity was 0.5 µmol/kg. Moreover, the Ratio with Brain [3] is recorded as 1.54; with Brain [19], 1.62; in the data set with Brain [4] it was 1.14; with Brain [6], 1.23. Also, the results for the T with Oryctolagus cuniculus [21], in the data set on Oryctolagus cuniculus [22] and in the data set with Oryctolagus cuniculus [23] were 1.15 °C, 0.6 °C and 2.31 °C, respectively.

On to `COc1cc(CC(C)N)c(OC)cc1C.Cl` (racemic), for which the T in the data set on Oryctolagus cuniculus [24] came out at 1.98 °C; in the data set with Oryctolagus cuniculus [30], 2.85 °C; in the data set on Oryctolagus cuniculus [31], 0.8 °C. In addition, the “fold change (FC)” value in the data set on Oryctolagus cuniculus [1] and with Oryctolagus cuniculus [8] was 1 in each case. In addition, the Activity in the data set on Oryctolagus cuniculus [2] turned out to be 0.27 µmol/kg. The Time with Oryctolagus cuniculus [25] worked out at 195 min; in the data set with Oryctolagus cuniculus [26] it was 165 min; in the data set on Oryctolagus cuniculus [27] it was 135 min. The Ratio is on record as 0.95 in the data set on Brain [28]; 1.55 in the data set on Brain [29]; 1.06 with Brain [32]; 1.34 in the data set with Brain [33]; 1.46 with Brain [34].

On to `CCN(CC)C(=O)[C@@H]1C=C2c3cccc4[nH]cc(c34)C[C@H]2N(C)C1` [LYSERGIDE], for which the “fold change (FC)” value in the data set on Oryctolagus cuniculus [8] is 33.

On to `COc1cc(CCN)cc(OC)c1OC` [MESCALINE], for which, in the data set on Oryctolagus cuniculus [8], the “fold change (FC)” value is 0.0006.

(Values after ChEMBL document CHEMBL3244120, “Monomethylthio analogues of 1-(2,4,5-trimethoxyphenyl)-2-aminopropane” (J Med Chem, 1977).)
